Data as given in PMC11676834, “Composition of Triterpene Glycosides of the Far Eastern Sea Cucumber Cucumaria conicospermium Levin et Stepanov; Structure Elucidation of Five Minor Conicospermiumosides A3-1, A3-2, A3-3, A7-1, and A7-2; Cytotoxicity of the Glycosides Against Human Breast Cancer Cell Lines; Structure–Activity …” (Marine Drugs, 2024).
Structures can show the parent of a compound that is named as a salt. Where two headings read alike, the source gives them in different places.

Key:
human erythrocytes = assay: Hemolytic activity; type: cell-based; settings: Erythrocyte, 1 h at 37 °C, read-out: ED50, Erythrocytes (hemolytic activity)
Protocol: Human blood (B(III) Rh+) was used to obtain erythrocytes by centrifuging 450× g three times for 5 min with phosphate-buffered saline (PBS) (pH 7.4) at 4 °C on centrifuge LABOFUGE 400R (Heraeus, Hanau, Germany). Ice-cold PBS (pH 7.4) was used for resuspension of erythrocytes residue to a final optical density of 1.5 at 700 nm, which was kept on ice. Then, 10 µL of tested compound solution or control (okhotoside A1-1 (7)) were added to 90 µL of erythrocyte suspension in V-bottom 96-well plates and exposed for 1 h at 37 °C. Next, centrifugation at 900× g for 10 min on a laboratory centrifuge LMC-3000 (Biosan, Riga, Latvia), led to separation of layers, and 80 µL of supernatant was carefully decanted and transferred into new flat-plate for each. The values of erythrocyte lysis were measured on microplate photometer Multiskan FC (Thermo Fisher Scientific, Waltham, MA, USA) at λ = 570 nm as hemoglobin concentration in supernatant. The effective dose, causing lysis of 50% erythrocytes (ED50), was calculated with SigmaPlot 14.0 software. All the experiments were carried out in triple repetitions, p ≤ 0.05.

in vitro = type: cell-based, human; settings: human, MTT, 24 h; read-out: Cytotoxicity, IC50, MCF-10A
Excerpt: (§1) Human erythrocytes were purchased from the Station of Blood Transfusion, Vladivostok. Human mammary epithelial cell line MCF-10A CRL-10317, human breast cancer cell lines T-47D HTB-133, MCF-7 HTB-22, and MDA-MB-231 CRM-HTB-26 were received from ATCC (Manassas, VA, USA). Culturing conditions: medium of RPMI-1640 with 1% penicillin/streptomycin (Biolot, St. Petersburg, Russia) and 10% fetal bovine serum (FBS) (Biolot, St. Petersburg, Russia) for the T-47D cell line; Minimum Essential Medium (MEM) with 1% penicillin/streptomycin sulfate (Biolot, St. Petersburg, Russia) and FBS (Biolot, St. Petersburg, Russia) to a final concentration of 10% for MCF-7 and MDA-MB-231 cells; DMEM/F12 medium with 10% FBS, 20 ng/mL EGF, […] hydrocortisone, 100 ng/mL cholera toxin, 10 μg/mL insulin, and 1% penicillin/streptomycin (BioinnLabs, Rostov-on-Don, Russia) for MCF-10A cell line.
(§2) The concentrations of tested glycosides were 0.1–50 µM; positive controls were cisplatin and okhotoside A1-1 (7). […] Then, the solutions of tested compounds with medium were replaced by 100 µL of fresh medium, and 10 µL of 3-(4,5-dimethylthiazol-2-yl)-2,5-diphenyltetrazolium bromide (MTT) (PanReac, AppliChem, Darmstadt, Germany) stock solution (5 mg/mL) was added to each well and incubated for 4 h, followed by the addition of 100 µL of SDS-HCl solution (1 g SDS/10 mL d-H2O/17 µL 6 N HCl) and further incubated for 18 h. Multiskan FC microplate photometer (Thermo Fisher Scientific, Waltham, MA, USA) was used to measure the absorbance of the converted dye formazan at 570 nm. The concentration caused the 50% cell metabolic activity inhibition (IC50) expresses the cytotoxic activity of each glycoside. The experiments were conducted in triplicate, p ≤ 0.05.

MCF-7 cells = assay: cells; type: cell-based, human; settings: MTT, 24 h, read-out: Cytotoxicity, IC50, MCF-7
Excerpt: as §1
(§3) The concentrations of tested glycosides were 0.1–50 µM; positive controls were cisplatin and okhotoside A1-1 (7). Methodology: to each well of 96-well plates, the cell suspension (180 µL) with solution (20 µL) of tested glycoside in a certain concentration was placed (MCF-10A, MCF-7, T-47D, and MDA-MB-231—7 × 10^3 cells per well) and incubated in the atmosphere with 5% CO2 at 37 °C for 24 h. Then, the solutions of tested compounds with medium were replaced by 100 µL of fresh medium, and 10 µL of 3-(4,5-dimethylthiazol-2-yl)-2,5-diphenyltetrazolium bromide (MTT) (PanReac, AppliChem, Darmstadt, Germany) stock solution (5 mg/mL) was added to each well and incubated for 4 h, followed by the addition of 100 µL of SDS-HCl solution (1 g SDS/10 mL d-H2O/17 µL 6 N HCl) and further incubated for 18 h. Multiskan FC microplate photometer (Thermo Fisher Scientific, Waltham, MA, USA) was used to measure the absorbance of the converted dye formazan at 570 nm. The concentration caused the 50% cell metabolic activity inhibition (IC50) expresses the cytotoxic activity of each glycoside. The experiments were conducted in triplicate, p ≤ 0.05.

T-47D cells = assay: cells; type: cell-based, human; settings: MTT, 24 h, read-out: Cytotoxicity, IC50, T-47D
Excerpt: as §1, §3

MDA-MB-231 cells = assay: cells; type: cell-based, human; settings: MTT, 24 h, read-out: Cytotoxicity, IC50, MDA-MB-231
Excerpt: as §1, §2

MCF-10A cells = assay: in vitro; type: cell-based, human; settings: MTT, 24 h; read-out: Cytotoxicity, IC50, MCF-10A
Excerpt: as §1, §2

Structure (SMILES) | HC50 (human erythrocytes) | IC50 (in vitro) | IC50 (MCF-7 cells; Homo sapiens, MCF7) | IC50 (T-47D cells; Homo sapiens, T47D) | IC50 (MDA-MB-231 cells; Homo sapiens, MDA-MB-231) | IC50 (MCF-10A cells) | IC50 (MCF-7 cells) | IC50 (T-47D cells) | IC50 (MDA-MB-231 cells)
CO[C@@H]1[C@@H](O)[C@H](O[C@@H]2[C@@H](O)[C@H](O[C@H]3[C@H](O)[C@@H](O[C@@H]4OC[C@@H](O)[C@H](O)[C@H]4O)[C@H](O[C@H]4[C@H](OC5CC[C@]6(C)[C@H]7CCC89C(=O)O[C@@](C)(CCCC(C)C)C8[C@@H](OC(C)=O)C[C@@]9(C)C7=CC[C@H]6C5(C)C)OC[C@@H](OS(=O)(=O)O)[C@@H]4O)O[C@@H]3C)OC[C@H]2O)O[C@H](CO)[C@H]1O (stereo partly shown) [Frondoside A (10), frondoside A] | 1220 ± 60 nM | 11 ± 1.04 µM | 19.4 ± 0.48 µM | 9.76 ± 0.53 µM | 2.79 ± 0.09 µM | – | – | – | –
CO[C@@H]1[C@@H](O)[C@H](O[C@@H]2[C@@H](O)[C@H](O[C@H]3[C@H](O)[C@@H](O[C@@H]4OC[C@@H](O)[C@H](O)[C@H]4O)[C@H](O[C@H]4[C@H](O[C@H]5CC[C@]6(C)C7CC[C@]8(C)[C@@H]([C@@](C)(O)[C@H](O)/C=C/C(C)(C)O)CC[C@@]8(C)C7=CC[C@H]6C5(C)C)OC[C@@H](OS(=O)(=O)O)[C@@H]4O)O[C@@H]3C)O[C@H](COS(=O)(=O)O)[C@H]2O)O[C@H](COS(=O)(=O)O)[C@H]1O (stereo partly drawn) [Conicospermiumoside A7-2 (5), 3β-O-{6-O-sodium sulfate-3-O-methyl-β-D-glucopyranosyl-(1→3)-6-O-sodium sulfate-β-D-glucopyranosyl-(1→4)-[(1→2)-β-D-xylopyranosyl]-β-D-quinovopyranosyl-(1→2)-4-O-sodium sulfate-β-D-xylopyranosyl}-(20R,22R,25)-trihydroxylanosta-7,23-diene] | 20400 ± 360 nM | > 50 µM | > 50 µM | > 50 µM | 49.9 ± 1.45 µM | – | – | – | –
C=C(C)CCC[C@]1(C)OC(=O)C23CC[C@H]4C(=CC[C@H]5C(C)(C)C(O[C@@H]6OC[C@@H](OS(=O)(=O)O)[C@H](O)[C@H]6O[C@@H]6O[C@H](CO)[C@@H](O[C@@H]7O[C@H](COS(=O)(=O)O)[C@@H](O)[C@H](O[C@@H]8O[C@H](CO)[C@@H](O)[C@H](OC)[C@H]8O)[C@H]7O)[C@H](O)[C@H]6O[C@@H]6OC[C@@H](O)[C@H](O)[C@H]6O)CC[C@]45C)[C@]2(C)C[C@H](OC(C)=O)C31 (stereo partly shown) [Okhotoside B2 (9), okhotoside B2] | 1360 ± 100 nM | 10.7 ± 0.21 µM | 39.8 ± 2.96 µM | 11.1 ± 1.15 µM | 4.25 ± 0.38 µM | – | – | – | –
N.N.[Cl][Pt][Cl] [cisplatin, reference compound] | – | – | – | – | – | 74.3 ± 2.19 µM | 113 ± 2.45 µM | > 160 µM | ≥ 160 µM
CO[C@@H]1[C@@H](O)[C@H](O[C@@H]2[C@@H](O)[C@H](O[C@H]3[C@H](O)[C@@H](O[C@@H]4OC[C@@H](O)[C@H](O)[C@H]4O)[C@H](O[C@H]4[C@H](O[C@H]5CC[C@]6(C)C7CC[C@]8(C)[C@@H]([C@@](C)(O)[C@@H](CC=C(C)C)OC(C)=O)CC[C@@]8(C)C7=CC[C@H]6C5(C)C)OC[C@@H](OS(=O)(=O)O)[C@@H]4O)O[C@@H]3C)O[C@H](COS(=O)(=O)O)[C@H]2O)O[C@H](CO)[C@H]1O (stereo partly drawn) [Conicospermiumoside A3-2 (2), 3β-O-{3-O-methyl-β-D-glucopyranosyl-(1→3)-6-O-sodium sulfate-β-D-glucopyranosyl-(1→4)-[(1→2)-β-D-xylopyranosyl]-β-D-quinovopyranosyl-(1→2)-4-O-sodium sulfate-β-D-xylopyranosyl}-20R-hydroxy,22R-acetoxylanosta-7,24-diene] | 7560 ± 80 nM | 36.8 ± 2.48 µM | > 50 µM | 38.9 ± 1.62 µM | 20.7 ± 2.28 µM | – | – | – | –
COC1C(O)C(CO)OC(OC2C(O)COC(OC3C(C)OC(OC4C(OC5CCC6(C)C7CCC89C(=O)OC(C)(CC(=O)CC(C)C)C8C(OC(C)=O)CC9(C)C7=CCC6C5(C)C)OCC(OS(=O)(=O)O)C4O)C(O)C3O)C2O)C1O (stereo not shown) [Okhotoside A1-1 (7), okhotoside A1-1] | 420 ± 20 nM | 7.95 ± 0.44 µM | 10.9 ± 0.96 µM | 6.23 ± 0.68 µM | 2.25 ± 0.17 µM | – | – | – | –
CO[C@@H]1[C@@H](O)[C@H](O[C@@H]2[C@@H](O)[C@H](O[C@H]3[C@H](O)[C@@H](O[C@@H]4OC[C@@H](O)[C@H](O)[C@H]4O)[C@H](O[C@H]4[C@H](O[C@H]5CC[C@]6(C)C7CC[C@]8(C)[C@@H]([C@@](C)(O)[C@H](O)CC=C(C)C)CC[C@@]8(C)C7=CC[C@H]6C5(C)C)OC[C@@H](OS(=O)(=O)O)[C@@H]4O)O[C@@H]3C)O[C@H](COS(=O)(=O)O)[C@H]2O)O[C@H](COS(=O)(=O)O)[C@H]1O (stereo partly shown) [Frondoside A7-4 (14), frondoside A7-4] | 2160 ± 60 nM | 26.8 ± 0.94 µM | 32.9 ± 2.13 µM | 44.5 ± 2.18 µM | 8.11 ± 0.74 µM | – | – | – | –
